Measured values as given in ChEMBL document CHEMBL4419173, “Small-molecule inhibitors targeting g-protein-coupled rho guanine nucleotide exchange factors” (2014).
Activity calls are given as the source filed them. The calls are words filed in the database; no cut-off is given here.

How the values were obtained:
Mus musculus [1] = species: Mus musculus; test: Inhibition of RhoGEF in mouse NIH/3T3 cells assessed as inhibition of 10% calf serum-induced RhoA-GTP formation by measuring RhoA-GTP level at 30 uM incubated for 24 hrs by densitometry relative to control (reference value: 2.15); type: cell-based
MCF7 [2] = test: Inhibition of RhoGEF in human MCF7 cells derived mammospheres assessed as inhibition of 10% calf serum-induced RhoA-GTP formation by measuring relative RhoA-GTP level at 10 uM incubated for 24 hrs by densitometry (reference value: 1); type: cell-based
[3] = target: T1, Rho guanine nucleotide exchange factor 12 (Homo sapiens, UniProt Q9NZN5); test: Inhibition of human LARG (765 to 1138 residues) RhoGEF-catalyzed guanine nucleotide-exchange reaction of human full length RhoA (1 to 193 residues) by measuring inhibition of the GDP dissociation from RhoA by Alexa 647 fluorescence dye based GDP/GTP exchange assay
MCF7 [4] = test: Inhibition of RhoGEF in human MCF7 cells derived mammospheres assessed as inhibition of RhoA-mediated phospho-MLC formation incubated for 24 hrs by densitometry; type: cell-based
Mus musculus [5] = species: Mus musculus; test: Inhibition of RhoGEF in mouse NIH/3T3 cells assessed as inhibition of 10% calf serum-induced Cdc42-GTP formation by measuring relative Cdc42-GTP level at 50 uM incubated for 24 hrs by densitometry (reference value: 1); type: cell-based
MCF7 [6] = test: Inhibition of mammospheres formation in human MCF7 cells at 2.5 to 15 uM in presence of 2.5 to 15 uM Rhosin/G04 incubated for 10 days; type: functional, cell-based
Mus musculus [7] = species: Mus musculus; test: Inhibition of RhoGEF in mouse NIH/3T3 cells assessed as inhibition of 10% calf serum-induced Rac1-GTP formation by measuring relative Rac1-GTP level at 50 uM in presence of 50 uM Rhosin/G04 incubated for 24 hrs by densitometry (reference value: 1); type: cell-based
Mus musculus [8] = species: Mus musculus; test: Inhibition of RhoGEF in mouse NIH/3T3 cells assessed as reduction in 10% calf serum-induced rhoA-mediated actin stress fiber formation at 2.5 uM in presence of 2.5 uM Rhosin/G04 by rhodamine-phalloidin staining based assay; type: cell-based
Mus musculus [9] = species: Mus musculus; test: Inhibition of RhoGEF in mouse NIH/3T3 cells assessed as inhibition of 10% calf serum-induced RhoA-GTP formation by measuring relative RhoA-GTP level at 50 uM in presence of 50 uM Rhosin/G04 incubated for 24 hrs by densitometry (reference value: 1); type: cell-based
Mus musculus [10] = species: Mus musculus; test: Inhibition of RhoGEF-mediated RhoA signaling in mouse NIH/3T3 cells assessed as inhibition of SDF1a-induced phospho-MLC formation at 10 to 30 uM incubated for 24 hrs by densitometry; type: cell-based
[11] = target: T1, Rho guanine nucleotide exchange factor 12; test: Inhibition of human LARG (765 to 1138 residues) RhoGEF binding to human full length RhoA (1 to 193 residues)
Mus musculus [12] = species: Mus musculus; test: Inhibition of RhoGEF in mouse NIH/3T3 cells assessed as inhibition of 10% calf serum-induced Rac1-GTP formation by measuring Rac1-GTP level at 10 uM incubated for 24 hrs by densitometry relative to control (reference value: 2.86); type: cell-based
[13] = target: Serine/threonine-protein kinase N1/Transforming protein RhoA (Homo sapiens) (UniProt Q16512+P61586); test: Inhibition of human PKN1 expressed in mouse NIH/3T3 cells assessed as reduction in human full length RhoA (1 to 193 residues) interaction with PKN1 at 50 to 200 uM incubated for 1 hr by Western blot analysis based His-RhoA pull-down assay; type: cell-based
Mus musculus [14] = species: Mus musculus; test: Inhibition of RhoGEF in mouse NIH/3T3 cells assessed as inhibition of 10% calf serum-induced Cdc42-GTP formation by measuring Cdc42-GTP level at 30 uM incubated for 24 hrs by densitometry relative to control (reference value: 3.25); type: cell-based
[15] = target: Proto-oncogene DBL/Transforming protein RhoA (Homo sapiens) (UniProt P61586+P10911); test: Inhibition of GST-tagged human DBL RhoGEF DH-PH module expressed in mouse NIH/3T3 cells assessed as reduction in human full length RhoA (1 to 193 residues) interaction with DBL RhoGEF at 10 to 50 uM incubated for 1 hr by Western blot analysis based His-RhoA pull-down assay; type: cell-based
MCF7 [16] = test: Inhibition of RhoGEF in human MCF7 cells derived mammospheres assessed as inhibition of 10% calf serum-induced RhoA-GTP formation by measuring relative RhoA-GTP level at 30 uM incubated for 24 hrs by densitometry (reference value: 1); type: cell-based
[17] = target: Rho guanine nucleotide exchange factor 12 (Homo sapiens, UniProt Q9NZN5, V1099A); test: Binding affinity to recombinant human LARG (765 to 1138 residues) V1099A mutant by microscale thermophoresis analysis
[18] = tested on: Rho-associated protein kinase 2 (Homo sapiens), O75116 [UNDEFINED MUTATION]; test: Inhibition of constitutively active ROCK2 mutant (unknown origin) expressed in mouse NIH/3T3 cells assessed as reduction in 10% calf serum-induced actin stress fiber formation at 30 uM by rhodamine-phalloidin staining based assay; type: cell-based
MCF7 [19] = test: Inhibition of mammospheres formation in human MCF7 cells incubated for 10 days; type: functional, cell-based
Mus musculus [20] = species: Mus musculus; test: Inhibition of RhoGEF in mouse NIH/3T3 cells assessed as inhibition of 10% calf serum-induced RhoA-GTP formation by measuring relative RhoA-GTP level at 15 uM in presence of 15 uM Rhosin/G04 incubated for 24 hrs by densitometry (reference value: 1); type: cell-based
[21] = tested on: Transforming protein RhoA (Homo sapiens), P61586 [Q63L]; test: Inhibition of constitutively active RhoA Q63L mutant (unknown origin) expressed in mouse NIH/3T3 cells assessed as reduction in 10% calf serum-induced actin stress fiber formation at 50 uM by rhodamine-phalloidin staining based assay; type: cell-based
Mus musculus [22] = species: Mus musculus; test: Inhibition of RhoGEF in mouse NIH/3T3 cells assessed as inhibition of 10% calf serum-induced RhoA-GTP formation by measuring reduction in RhoA-GTP level at 30 uM incubated for 24 hrs by densitometry relative to control; type: cell-based
Mus musculus [23] = species: Mus musculus; test: Inhibition of RhoGEF in mouse NIH/3T3 cells assessed as inhibition of 10% calf serum-induced RhoA-GTP formation by measuring relative RhoA-GTP level at 30 uM incubated for 24 hrs by densitometry (reference value: 1); type: cell-based
MCF7 [24] = test: Growth inhibition of human MCF7 cells at 5 to 50 uM; type: functional, cell-based
Mus musculus [25] = species: Mus musculus; test: Inhibition of RhoGEF in mouse NIH/3T3 cells assessed as reduction in 10% calf serum-induced rhoA-mediated actin stress fiber formation at 10 uM by rhodamine-phalloidin staining based assay; type: cell-based
Mus musculus [26] = species: Mus musculus; test: Inhibition of RhoGEF in mouse NIH/3T3 cells assessed as inhibition of 10% calf serum-induced Cdc42-GTP formation by measuring relative Cdc42-GTP level at 50 uM in presence of 50 uM Rhosin/G04 incubated for 24 hrs by densitometry (reference value: 1); type: cell-based

T1 sequence (Q9NZN5 whole entry, the tested form may be a part): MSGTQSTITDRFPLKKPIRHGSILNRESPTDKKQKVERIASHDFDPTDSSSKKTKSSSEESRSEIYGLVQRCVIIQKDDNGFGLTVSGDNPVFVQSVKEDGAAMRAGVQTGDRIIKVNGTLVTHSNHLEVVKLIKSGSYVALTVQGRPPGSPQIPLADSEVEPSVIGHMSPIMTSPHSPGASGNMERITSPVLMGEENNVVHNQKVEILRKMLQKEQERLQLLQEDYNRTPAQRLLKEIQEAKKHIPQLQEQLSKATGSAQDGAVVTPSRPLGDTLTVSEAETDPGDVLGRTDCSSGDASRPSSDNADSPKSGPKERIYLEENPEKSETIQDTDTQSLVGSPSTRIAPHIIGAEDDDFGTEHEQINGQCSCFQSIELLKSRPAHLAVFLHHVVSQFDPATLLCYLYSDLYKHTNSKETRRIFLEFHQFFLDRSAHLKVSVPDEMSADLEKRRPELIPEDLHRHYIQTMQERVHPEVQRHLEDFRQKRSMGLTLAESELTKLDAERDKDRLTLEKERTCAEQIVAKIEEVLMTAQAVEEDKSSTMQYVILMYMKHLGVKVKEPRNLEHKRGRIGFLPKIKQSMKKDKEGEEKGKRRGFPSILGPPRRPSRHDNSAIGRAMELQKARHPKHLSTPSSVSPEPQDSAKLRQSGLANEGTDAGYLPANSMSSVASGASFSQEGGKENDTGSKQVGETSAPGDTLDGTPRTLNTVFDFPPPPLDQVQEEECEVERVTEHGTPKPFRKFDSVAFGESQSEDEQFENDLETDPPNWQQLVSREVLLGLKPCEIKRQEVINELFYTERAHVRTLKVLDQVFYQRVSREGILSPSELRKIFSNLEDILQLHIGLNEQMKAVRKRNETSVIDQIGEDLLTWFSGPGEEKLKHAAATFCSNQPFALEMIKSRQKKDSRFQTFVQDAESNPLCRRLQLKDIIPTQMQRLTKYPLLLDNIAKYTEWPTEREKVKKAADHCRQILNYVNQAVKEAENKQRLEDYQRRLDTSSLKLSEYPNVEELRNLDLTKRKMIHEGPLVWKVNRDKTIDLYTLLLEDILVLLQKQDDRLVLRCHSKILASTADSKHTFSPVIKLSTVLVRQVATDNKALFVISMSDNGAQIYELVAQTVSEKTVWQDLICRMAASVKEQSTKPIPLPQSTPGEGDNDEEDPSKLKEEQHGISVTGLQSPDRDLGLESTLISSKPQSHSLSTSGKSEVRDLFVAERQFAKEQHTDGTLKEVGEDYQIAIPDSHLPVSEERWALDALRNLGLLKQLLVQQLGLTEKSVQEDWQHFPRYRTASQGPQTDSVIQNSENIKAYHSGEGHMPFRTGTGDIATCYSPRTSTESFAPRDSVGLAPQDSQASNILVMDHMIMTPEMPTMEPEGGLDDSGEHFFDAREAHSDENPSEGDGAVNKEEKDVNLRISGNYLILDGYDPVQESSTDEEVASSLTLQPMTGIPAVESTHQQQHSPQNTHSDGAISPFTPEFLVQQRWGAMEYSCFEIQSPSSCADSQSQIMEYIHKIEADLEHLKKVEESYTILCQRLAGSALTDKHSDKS
Chain of Transforming protein RhoA (Homo sapiens), P61586 [Q63L] (P61586 whole entry Q63L): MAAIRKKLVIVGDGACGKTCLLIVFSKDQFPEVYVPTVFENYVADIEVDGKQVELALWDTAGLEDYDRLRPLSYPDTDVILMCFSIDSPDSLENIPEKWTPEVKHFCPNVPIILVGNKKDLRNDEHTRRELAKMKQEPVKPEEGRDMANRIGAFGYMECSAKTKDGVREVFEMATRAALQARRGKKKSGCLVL
Chain of Rho-associated protein kinase 2 (Homo sapiens), O75116 [UNDEFINED MUTATION] (O75116 whole entry, looked up, change not shown): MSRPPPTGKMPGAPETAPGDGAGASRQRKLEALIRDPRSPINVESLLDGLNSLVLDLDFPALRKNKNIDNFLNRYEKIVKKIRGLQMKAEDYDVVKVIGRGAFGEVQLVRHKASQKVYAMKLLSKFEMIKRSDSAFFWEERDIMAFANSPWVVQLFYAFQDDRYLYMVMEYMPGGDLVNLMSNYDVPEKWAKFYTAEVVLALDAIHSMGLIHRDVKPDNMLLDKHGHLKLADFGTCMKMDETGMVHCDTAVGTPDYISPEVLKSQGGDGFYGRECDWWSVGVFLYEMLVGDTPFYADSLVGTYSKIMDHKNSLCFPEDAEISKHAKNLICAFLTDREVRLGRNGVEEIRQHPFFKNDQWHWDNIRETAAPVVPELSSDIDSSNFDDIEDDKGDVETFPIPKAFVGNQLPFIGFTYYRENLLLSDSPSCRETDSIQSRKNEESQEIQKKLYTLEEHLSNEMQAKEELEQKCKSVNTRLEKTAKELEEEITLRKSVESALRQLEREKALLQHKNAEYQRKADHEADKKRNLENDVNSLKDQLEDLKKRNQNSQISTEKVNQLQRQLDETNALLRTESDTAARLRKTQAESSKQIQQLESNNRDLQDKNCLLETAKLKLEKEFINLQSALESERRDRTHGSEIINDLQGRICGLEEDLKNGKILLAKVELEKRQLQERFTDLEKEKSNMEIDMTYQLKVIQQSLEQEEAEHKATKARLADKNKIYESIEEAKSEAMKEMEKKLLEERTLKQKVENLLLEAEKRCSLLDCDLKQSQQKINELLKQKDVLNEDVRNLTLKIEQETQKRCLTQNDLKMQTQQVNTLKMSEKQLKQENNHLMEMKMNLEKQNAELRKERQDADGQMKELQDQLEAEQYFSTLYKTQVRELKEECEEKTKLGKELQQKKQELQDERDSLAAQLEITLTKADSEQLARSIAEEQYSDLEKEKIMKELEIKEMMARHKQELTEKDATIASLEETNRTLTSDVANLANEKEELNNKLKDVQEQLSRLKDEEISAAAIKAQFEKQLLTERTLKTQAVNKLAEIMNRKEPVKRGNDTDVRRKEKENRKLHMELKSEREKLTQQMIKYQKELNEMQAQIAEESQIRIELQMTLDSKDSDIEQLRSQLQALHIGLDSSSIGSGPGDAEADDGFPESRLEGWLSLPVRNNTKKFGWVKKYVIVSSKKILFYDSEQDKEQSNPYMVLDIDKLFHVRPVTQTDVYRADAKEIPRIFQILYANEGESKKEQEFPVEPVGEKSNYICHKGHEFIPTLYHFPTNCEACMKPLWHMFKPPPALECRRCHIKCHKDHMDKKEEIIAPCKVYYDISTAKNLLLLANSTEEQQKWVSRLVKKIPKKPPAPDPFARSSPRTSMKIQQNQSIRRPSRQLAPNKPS
Chain of Rho guanine nucleotide exchange factor 12 (Homo sapiens, UniProt Q9NZN5, V1099A) (Q9NZN5 2-1544 V1099A limits assumed): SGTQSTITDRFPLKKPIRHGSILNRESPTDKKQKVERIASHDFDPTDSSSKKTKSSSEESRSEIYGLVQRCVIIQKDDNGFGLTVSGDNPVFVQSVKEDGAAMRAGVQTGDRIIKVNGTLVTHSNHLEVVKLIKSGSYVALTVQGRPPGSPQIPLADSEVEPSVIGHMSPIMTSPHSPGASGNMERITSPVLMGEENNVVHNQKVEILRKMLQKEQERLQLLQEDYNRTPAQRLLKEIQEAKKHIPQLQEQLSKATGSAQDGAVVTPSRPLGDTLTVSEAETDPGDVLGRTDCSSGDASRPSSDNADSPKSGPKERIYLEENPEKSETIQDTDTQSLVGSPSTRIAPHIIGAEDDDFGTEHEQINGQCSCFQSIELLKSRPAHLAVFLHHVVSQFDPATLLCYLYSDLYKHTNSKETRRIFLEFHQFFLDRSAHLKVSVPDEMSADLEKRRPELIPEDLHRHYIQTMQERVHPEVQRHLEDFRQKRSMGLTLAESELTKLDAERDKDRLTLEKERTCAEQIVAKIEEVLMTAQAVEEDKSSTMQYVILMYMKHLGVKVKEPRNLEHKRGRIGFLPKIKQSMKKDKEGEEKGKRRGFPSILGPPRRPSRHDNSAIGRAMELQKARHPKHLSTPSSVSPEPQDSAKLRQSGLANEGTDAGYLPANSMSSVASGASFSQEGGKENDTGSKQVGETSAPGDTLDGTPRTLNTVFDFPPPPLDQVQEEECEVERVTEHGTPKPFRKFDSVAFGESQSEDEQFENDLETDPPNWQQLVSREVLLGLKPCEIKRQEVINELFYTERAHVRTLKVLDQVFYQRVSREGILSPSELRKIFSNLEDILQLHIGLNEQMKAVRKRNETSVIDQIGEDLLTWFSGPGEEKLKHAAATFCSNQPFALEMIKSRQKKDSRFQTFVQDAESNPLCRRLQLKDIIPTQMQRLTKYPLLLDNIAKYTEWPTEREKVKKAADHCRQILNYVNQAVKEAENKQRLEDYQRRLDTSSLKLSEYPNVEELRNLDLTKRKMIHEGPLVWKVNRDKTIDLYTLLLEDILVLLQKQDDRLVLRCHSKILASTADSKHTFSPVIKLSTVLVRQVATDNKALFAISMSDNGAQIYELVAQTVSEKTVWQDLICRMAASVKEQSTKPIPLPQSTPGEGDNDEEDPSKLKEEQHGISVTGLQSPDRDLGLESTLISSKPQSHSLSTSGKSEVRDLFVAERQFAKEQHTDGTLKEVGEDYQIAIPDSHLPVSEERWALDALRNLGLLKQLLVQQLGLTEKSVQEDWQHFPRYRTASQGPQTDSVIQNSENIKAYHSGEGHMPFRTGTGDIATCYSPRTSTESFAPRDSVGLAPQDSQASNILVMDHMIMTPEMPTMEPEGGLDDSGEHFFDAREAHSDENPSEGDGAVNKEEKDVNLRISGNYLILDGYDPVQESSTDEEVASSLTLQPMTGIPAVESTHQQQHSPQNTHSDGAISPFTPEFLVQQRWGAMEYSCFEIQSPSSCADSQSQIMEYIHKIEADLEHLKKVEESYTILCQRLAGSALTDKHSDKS

inhibition [3]: Dose-dependent effect
IC50 [11]: 5000 nM
inhibition [13]: inactive
inhibition [15]: inactive
Kd [17]: 79 nM
inhibition [18]: inactive
inhibition [21]: inactive
Structure (SMILES): Cc1cccc(COc2cccc(/C=C3\C(=O)NN(c4ccccc4)C3=O)c2)c1
fold change (FC) (Mus musculus [1]): 0.87
fold change (FC) (MCF7 [2]): 0.4
inhibition (MCF7 [4]): Dose-dependent effect
fold change (FC) (Mus musculus [5]): 1.25
inhibition (MCF7 [6]): Active
fold change (FC) (Mus musculus [7]): 1.19
inhibition (Mus musculus [8]): Active
fold change (FC) (Mus musculus [9]): 0
inhibition (Mus musculus [10]): Active
fold change (FC) (Mus musculus [12]): 1.83
fold change (FC) (Mus musculus [14]): 2.11
fold change (FC) (MCF7 [16]): 0.15
inhibition (MCF7 [19]): Dose-dependent effect
fold change (FC) (Mus musculus [20]): 0.25
inhibition (Mus musculus [22]): 80%
fold change (FC) (Mus musculus [23]): 0.51
growth inhibition (GI) (MCF7 [24]): Active
inhibition (Mus musculus [25]): Active
fold change (FC) (Mus musculus [26]): 1.27
